Reference: ChEMBL document CHEMBL5303304, “EUbOPEN Chemogenomics Library - IncuCyte” (2023)

Tests used:
Assay type in all cases: toxicity, cell-based
U2OS = experiment: Incucyte cell viability with U2OS; settings: human, 10 µM, compound concentration 10 uM
HEK-293T = experiment: Incucyte cell viability with HEK293T; settings: human, 10 µM, compound concentration 10 uM
Fibroblast = experiment: Incucyte cell viability with human fibroblast; settings: 10 µM, compound concentration 10 uM
Further: unitless GR value; below 1 slowed growth and below 0 cell loss.

Row | Structure (SMILES) | Growth Rate (U2OS; 6 h, replicate number 1) | Growth Rate (U2OS; 6 h, replicate number 2) | Growth Rate (U2OS; 12 h, replicate number 1) | Growth Rate (U2OS; 12 h, replicate number 2) | Growth Rate (U2OS; 18 h, replicate number 1) | Growth Rate (U2OS; 18 h, replicate number 2) | Growth Rate (U2OS; 24 h, replicate number 1) | Growth Rate (U2OS; 24 h, replicate number 2) | Growth Rate (HEK-293T; 6 h, replicate number 1) | Growth Rate (HEK-293T; 6 h, replicate number 2) | Growth Rate (HEK-293T; 12 h, replicate number 1) | Growth Rate (HEK-293T; 12 h, replicate number 2) | Growth Rate (HEK-293T; 18 h, replicate number 1) | Growth Rate (HEK-293T; 18 h, replicate number 2) | Growth Rate (HEK-293T; 24 h, replicate number 2) | Growth Rate (Fibroblast; 12 h, replicate number 2) | Growth Rate (Fibroblast; 18 h, replicate number 2) | Growth Rate (Fibroblast; 24 h, replicate number 2) | Growth Rate (U2OS; 0 h, replicate number 2) | Growth Rate (Fibroblast; 6 h, replicate number 2) | further results
1 | O=C(O)[C@]1(Cc2cccc(Nc3nccs3)n2)CC[C@@H](Oc2cccc(Cl)c2F)CC1 [MK-5108] | 0.98 | 0.59 | 0.56 | 0.14 | 0.21 | 0.25 | 0.37 | 0.47 | 0.9 | 0.73 | 0.39 | 0.16 | 0.47 | 0.35 | 0.61 | 0.85 | 0.26 | 0.2 | – | – | Growth Rate (HEK-293T; 0 h, replicate number 1): 0.43; Growth Rate (HEK-293T; 24 h, replicate number 1): 0.63; Growth Rate (Fibroblast; 0 h, replicate number 2): -1; Growth Rate (Fibroblast; 12 h, replicate number 1): 0.18; Growth Rate (Fibroblast; 18 h, replicate number 1): 0.17; Growth Rate (Fibroblast; 24 h, replicate number 1): 0.32
2 | Cn1cc(-c2cnc3ccc4ccc(CS(=O)(=O)NCc5ccccn5)cc4c(=O)c3c2)cn1 [MK-8033] | 0.9 | 0.76 | – | 0.75 | 0.88 | – | 0.81 | – | 0.24 | 0 | 0.39 | 0.34 | 0.56 | 0.63 | 0.78 | – | – | – | 0.2 | -0.01 | Growth Rate (HEK-293T; 24 h, replicate number 1): 0.71; Growth Rate (Fibroblast; 0 h, replicate number 1): -1; Growth Rate (Fibroblast; 6 h, replicate number 1): 0.98
3 | COc1cc(C(=O)O)ncc1C#Cc1ccccc1NS(=O)(=O)c1cccc2c(N(C)C)ccnc12 [MSC-0516] | 0.68 | 0.86 | 0.92 | 0.75 | 0.8 | 0.91 | 0.89 | 0.9 | – | – | – | – | – | – | – | 0.77 | 0.99 | 0.93 | 0.61 | 0.44 | Growth Rate (HEK-293T; 0 h, replicate number 1): -0.31; Growth Rate (HEK-293T; 0 h, replicate number 2): -0.98; Growth Rate (Fibroblast; 0 h, replicate number 1): -1
4 | COc1ccc(OC(=O)N(CC(=O)O)Cc2ccc(OCCc3nc(-c4ccccc4)oc3C)cc2)cc1 [MURAGLITAZAR] | – | 0.71 | – | 0.94 | – | – | – | 0.87 | 0.89 | 0.07 | 0.94 | 0.42 | – | 0.51 | 0.5 | 0.56 | 0.72 | 0.97 | 0.98 | 0.43 | Growth Rate (U2OS; 0 h, replicate number 1): -0.96; Growth Rate (HEK-293T; 0 h, replicate number 2): -1; Growth Rate (Fibroblast; 6 h, replicate number 1): 0.85; Growth Rate (Fibroblast; 12 h, replicate number 1): 0.76; Growth Rate (Fibroblast; 18 h, replicate number 1): 0.79
5 | CC(C)N1CCN(Cc2cnc(-c3cc(-c4cccc5[nH]ccc45)cc4[nH]ncc34)o2)CC1 [NEMIRALISIB] | – | 0.36 | 0.83 | 0.64 | – | 0.64 | – | 0.6 | -0.37 | -0.48 | -0.09 | -0.01 | 0.26 | 0.15 | 0.32 | 0.83 | 0.75 | 0.85 | 0.94 | – | Growth Rate (U2OS; 0 h, replicate number 1): -0.99; Growth Rate (HEK-293T; 24 h, replicate number 1): 0.34; Growth Rate (Fibroblast; 6 h, replicate number 1): -0.06; Growth Rate (Fibroblast; 12 h, replicate number 1): 0.04; Growth Rate (Fibroblast; 18 h, replicate number 1): 0.27; Growth Rate (Fibroblast; 24 h, replicate number 1): 0.3
6 | FC(F)(F)c1ccc(Nc2ncnc3cc(-c4ncccc4C(F)(F)F)ccc23)cc1 [NGD-8243] | – | 0.82 | 0.94 | 0.71 | 0.96 | 0.8 | 1 | 0.88 | – | – | – | 0.89 | – | 0.92 | 0.88 | -0.24 | 0.27 | 0.37 | – | -1 | Growth Rate (Fibroblast; 6 h, replicate number 1): 0.97; Growth Rate (Fibroblast; 12 h, replicate number 1): -1
7 | CN1CCC[C@H]1c1cccnc1 [NICOTINE] | 0.16 | 0.24 | – | 0.66 | – | 0.77 | – | 0.86 | 0.4 | 0.38 | 0.64 | 0.75 | 0.99 | 0.76 | 0.85 | – | – | – | -1 | -0.93 | Growth Rate (U2OS; 0 h, replicate number 1): -0.33; Growth Rate (HEK-293T; 0 h, replicate number 1): 0.69; Growth Rate (HEK-293T; 24 h, replicate number 1): 0.93; Growth Rate (Fibroblast; 0 h, replicate number 2): -0.9
